# Source: PubChem BioAssay AID1963856 (Molecular Pharmacology Branch, DTP, NCI, 2024)
# Tested on: LG0567-F671-PDC KRAS tumor spheroid viability
# Test: Anticancer human tumor LG0567-F671-PDC patient-derived lung adenocarcinoma cell line growth inhibition [KRAS2]
# Settings: spheroids with HUVEC and MSC; for IC50: curve of first compound; for viability, T/C: stronger effect = lower value
# In short: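 Combination screen of spheroid viability in tumor-cell co-cultures with endothelial (HUVEC) and mesenchymal stem cell stroma. Each agent was tested in half-log dilutions, topping at clinical Cmax or at 10 microM without a known Cmax.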
# [1] = second compound 0.1 µM, first compound 0.0316 µM
# [2] = second compound 0.1 µM, first compound 0.1 µM
# [3] = second compound 0.1 µM, first compound 0.316 µM
# [4] = second compound 0.1 µM, first compound 1 µM
# [5] = second compound 0.1 µM, first compound 3.16 µM
# [6] = second compound 0.1 µM, first compound 10 µM
# [7] = second compound 0.316 µM, first compound 0.0316 µM
# [8] = second compound 0.316 µM, first compound 0.1 µM
# [9] = second compound 0.316 µM, first compound 0.316 µM
# [10] = second compound 0.316 µM, first compound 1 µM
# [11] = second compound 0.316 µM, first compound 3.16 µM
# [12] = second compound 0.316 µM, first compound 10 µM
# [13] = second compound 1 µM, first compound 0.0316 µM
# [14] = second compound 1 µM, first compound 0.1 µM
# [15] = second compound 1 µM, first compound 0.316 µM
# [16] = second compound 1 µM, first compound 1 µM
# [17] = second compound 1 µM, first compound 3.16 µM
# [18] = second compound 1 µM, first compound 10 µM
# [19] = second compound 3.16 µM, first compound 0.0316 µM
# [20] = second compound 3.16 µM, first compound 0.1 µM
# [21] = second compound 3.16 µM, first compound 0.316 µM
# [22] = second compound 3.16 µM, first compound 1 µM
# [23] = second compound 3.16 µM, first compound 3.16 µM
# [24] = second compound 3.16 µM, first compound 10 µM
# [25] = second compound 10 µM, first compound 0.0316 µM
# [26] = second compound 10 µM, first compound 0.1 µM
# [27] = second compound 10 µM, first compound 0.316 µM
# [28] = second compound 10 µM, first compound 1 µM
# [29] = second compound 10 µM, first compound 3.16 µM
# [30] = second compound 10 µM, first compound 10 µM
# 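Further: drug exposure lasted seven days after spheroids formed for three days.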
# 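Wherever viability, T/C is given: 100% = DMSO vehicle control viability.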
compound,measurement,setting,value
CC1OCC2(CCN(c3cnc(Sc4ccnc(N)c4Cl)c(N)n3)CC2)C1N (stereo not given) + C=CC(=O)N1CCN(c2nc(=O)n(-c3c(C)ccnc3C(C)C)c3nc(-c4c(O)cccc4F)c(F)cc23)C(C)C1,IC50,second compound 0.1 µM,< 31.6 nM
same,IC50,second compound 0.316 µM,< 31.6 nM
same,IC50,second compound 1 µM,< 31.6 nM
same,IC50,second compound 3.16 µM,< 31.6 nM
same,IC50,second compound 10 µM,< 31.6 nM
same,"viability, T/C",[1],17.5%
same,"viability, T/C",[2],13.5%
same,"viability, T/C",[3],8.87%
same,"viability, T/C",[4],5.62%
same,"viability, T/C",[5],3.47%
same,"viability, T/C",[6],2.54%
same,"viability, T/C",[7],17.9%
same,"viability, T/C",[8],13.2%
same,"viability, T/C",[9],8.99%
same,"viability, T/C",[10],4.26%
same,"viability, T/C",[11],2.66%
same,"viability, T/C",[12],2.19%
same,"viability, T/C",[13],16.2%
same,"viability, T/C",[14],15.9%
same,"viability, T/C",[15],10.2%
same,"viability, T/C",[16],4.27%
same,"viability, T/C",[17],5.62%
same,"viability, T/C",[18],2.9%
same,"viability, T/C",[19],16.6%
same,"viability, T/C",[20],11.6%
same,"viability, T/C",[21],7.63%
same,"viability, T/C",[22],4%
same,"viability, T/C",[23],1.9%
same,"viability, T/C",[24],3.71%
same,"viability, T/C",[25],17.6%
same,"viability, T/C",[26],13.8%
same,"viability, T/C",[27],8.61%
same,"viability, T/C",[28],4.3%
same,"viability, T/C",[29],3.58%
same,"viability, T/C",[30],3.08%
CC1(C)CCC(CN2CCN(c3ccc(C(=O)NS(=O)(=O)c4ccc(NCC5CCOCC5)c([N+](=O)[O-])c4)c(Oc4cnc5[nH]ccc5c4)c3)CC2)=C(c2ccc(Cl)cc2)C1 + CNCc1ccccc1-c1csc(C(C)Nc2nc(C)nc3cc(OC)c(OC)cc23)c1,IC50,second compound 0.1 µM,1630 nM
same,IC50,second compound 0.316 µM,1470 nM
same,IC50,second compound 1 µM,1420 nM
same,IC50,second compound 3.16 µM,< 31.6 nM
same,IC50,second compound 10 µM,< 31.6 nM
same,"viability, T/C",[1],72.6%
same,"viability, T/C",[2],68.1%
same,"viability, T/C",[3],70.6%
same,"viability, T/C",[4],71.3%
same,"viability, T/C",[5],22%
same,"viability, T/C",[6],10.7%
same,"viability, T/C",[7],69.5%
same,"viability, T/C",[8],63.9%
same,"viability, T/C",[9],61.2%
same,"viability, T/C",[10],70.2%
same,"viability, T/C",[11],17.9%
same,"viability, T/C",[12],8.6%
same,"viability, T/C",[13],69.4%
same,"viability, T/C",[14],77.7%
same,"viability, T/C",[15],62%
same,"viability, T/C",[16],64.3%
same,"viability, T/C",[17],18.3%
same,"viability, T/C",[18],2.9%
same,"viability, T/C",[19],0.33%
same,"viability, T/C",[20],0.44%
same,"viability, T/C",[21],0.44%
same,"viability, T/C",[22],2.14%
same,"viability, T/C",[23],1.73%
same,"viability, T/C",[24],0.34%
same,"viability, T/C",[25],0.43%
same,"viability, T/C",[26],0.89%
same,"viability, T/C",[27],0.6%
same,"viability, T/C",[28],0.39%
same,"viability, T/C",[29],2.18%
same,"viability, T/C",[30],0.44%
CC(=O)Nc1cccc(-n2c(=O)n(C3CC3)c(=O)c3c(Nc4ccc(I)cc4F)n(C)c(=O)c(C)c32)c1 + CC1OCC2(CCN(c3cnc(Sc4ccnc(N)c4Cl)c(N)n3)CC2)C1N,IC50,second compound 0.1 µM,< 0.1 nM
same,IC50,second compound 0.316 µM,< 0.1 nM
same,IC50,second compound 1 µM,< 0.1 nM
same,IC50,second compound 3.16 µM,< 0.1 nM
same,IC50,second compound 10 µM,< 0.1 nM
same,"viability, T/C","second compound 0.1 µM, first compound 0.0001 µM",53.7%
same,"viability, T/C","second compound 0.1 µM, first compound 0.000316 µM",44.6%
same,"viability, T/C","second compound 0.1 µM, first compound 0.001 µM",49.4%
same,"viability, T/C","second compound 0.1 µM, first compound 0.00316 µM",44.7%
same,"viability, T/C","second compound 0.1 µM, first compound 0.01 µM",22.7%
same,"viability, T/C",[1],7.91%
same,"viability, T/C","second compound 0.316 µM, first compound 0.0001 µM",37.1%
same,"viability, T/C","second compound 0.316 µM, first compound 0.000316 µM",31.2%
same,"viability, T/C","second compound 0.316 µM, first compound 0.001 µM",25.6%
same,"viability, T/C","second compound 0.316 µM, first compound 0.00316 µM",21.9%
same,"viability, T/C","second compound 0.316 µM, first compound 0.01 µM",14.9%
same,"viability, T/C",[7],7.83%
same,"viability, T/C","second compound 1 µM, first compound 0.0001 µM",22.4%
same,"viability, T/C","second compound 1 µM, first compound 0.000316 µM",21.8%
same,"viability, T/C","second compound 1 µM, first compound 0.001 µM",17.6%
same,"viability, T/C","second compound 1 µM, first compound 0.00316 µM",8.6%
same,"viability, T/C","second compound 1 µM, first compound 0.01 µM",6.42%
same,"viability, T/C",[13],3.01%
same,"viability, T/C","second compound 3.16 µM, first compound 0.0001 µM",14.7%
same,"viability, T/C","second compound 3.16 µM, first compound 0.000316 µM",8.03%
same,"viability, T/C","second compound 3.16 µM, first compound 0.001 µM",2.89%
same,"viability, T/C","second compound 3.16 µM, first compound 0.00316 µM",1.92%
same,"viability, T/C","second compound 3.16 µM, first compound 0.01 µM",1.41%
same,"viability, T/C",[19],3.95%
same,"viability, T/C","second compound 10 µM, first compound 0.0001 µM",5.94%
same,"viability, T/C","second compound 10 µM, first compound 0.000316 µM",2.29%
same,"viability, T/C","second compound 10 µM, first compound 0.001 µM",2.96%
same,"viability, T/C","second compound 10 µM, first compound 0.00316 µM",1.63%
same,"viability, T/C","second compound 10 µM, first compound 0.01 µM",1.31%
same,"viability, T/C",[25],2.49%
